From patent US11992536B2, “Dual-targeting compound and preparation method and application thereof” (YANTAI LANNACHENG BIOTECHNOLOGY CO., LTD., priority 2022, dated 2024)

Columns and labels:
FAP = target: T1, FAP (Homo sapiens, UniProt Q12884); assay: Cell binding experiment in HT1080-FAP tumor cells (FIG. 11B); details: cell experiment of HT1080-FAP
T1 construct: expressed in transfected cells; host or cells: HT1080-FAP tumor cells
T1 sequence (Q12884 1-760): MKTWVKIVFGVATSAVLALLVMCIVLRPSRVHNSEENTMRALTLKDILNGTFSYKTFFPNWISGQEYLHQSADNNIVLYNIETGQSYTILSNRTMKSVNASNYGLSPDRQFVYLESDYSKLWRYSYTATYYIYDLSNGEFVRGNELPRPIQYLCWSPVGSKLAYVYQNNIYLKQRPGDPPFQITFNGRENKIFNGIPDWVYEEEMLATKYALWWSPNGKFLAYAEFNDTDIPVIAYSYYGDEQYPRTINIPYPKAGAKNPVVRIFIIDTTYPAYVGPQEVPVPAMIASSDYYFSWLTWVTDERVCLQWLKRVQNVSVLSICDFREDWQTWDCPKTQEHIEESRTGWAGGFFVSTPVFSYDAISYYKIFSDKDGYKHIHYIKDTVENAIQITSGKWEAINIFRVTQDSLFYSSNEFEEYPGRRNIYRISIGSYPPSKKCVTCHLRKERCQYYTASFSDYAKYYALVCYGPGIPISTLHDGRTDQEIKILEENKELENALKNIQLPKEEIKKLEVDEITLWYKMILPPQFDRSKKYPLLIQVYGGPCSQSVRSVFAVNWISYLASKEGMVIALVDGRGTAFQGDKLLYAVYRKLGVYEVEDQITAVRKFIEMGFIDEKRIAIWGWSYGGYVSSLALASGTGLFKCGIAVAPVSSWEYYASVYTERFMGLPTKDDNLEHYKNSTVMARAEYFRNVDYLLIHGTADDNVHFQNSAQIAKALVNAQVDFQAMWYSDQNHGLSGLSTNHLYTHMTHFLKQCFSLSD

HT1080-FAP tumor cells = assay: Cell uptake and blocking experiment in HT1080-FAP tumor cells; type: cell-based; details: blocking experiment

IC50 (FAP)	Compound	blocking of the cell uptake of 68Ga-FAPI-RGD (HT1080-FAP tumor cells)
11.2 nM	N#C[C@@H]1CCCN1C(=O)CNC(=O)c1ccnc2ccc(OCCCN3CCN(C(=O)CCOCCOCCNC(=O)[C@H](CCC(=O)NCCOCCOCCC(=O)NCCCC[C@@H]4NC(=O)[C@@H](Cc5ccccc5)NC(=O)[C@H](CC(=O)O)NC(=O)CNC(=O)[C@H](CCCNC(=N)N)NC4=O)NC(=O)CN4CCN(CC(=O)O)CCN(CC(=O)O)CC4)CC3)cc12 [68Ga-FAPI-RGD, metal not drawn]	
	N#C[C@@H]1CCCN1C(=O)CNC(=O)c1ccnc2ccc(OCCCN3CCN(C(=O)CN4CCN(CC(=O)O)CCN(CC(=O)O)CCN(CC(=O)O)CC4)CC3)cc12 [FAPI-02]	partially inhibited
	C(RGDfK)	partially inhibited
